Test results: patent US10596151B2, “Methods and pharmaceutical compositions for reducing arterial stiffness with a combination of a therapeutic agent blocking the angiotensin receptor and a therapeutic agent inhibiting the NEP enzyme” (Novartis AG, priority 2015, dated 2020)

Experiments:
[1] = test system: elderly patients (≥60 years) with essential hypertension; assay: […] study: central aortic pressures (CASP, CPP/CAPP, central DBP, central MAP) by SphygmoCor X-CEL; type: in vivo, human; details: for LSM change from baseline (SE) in mean CPP at Week 12 endpoint / LSM change from baseline (SE) in mean CASP at Week 12 endpoint / LSM change from baseline (SE) in mean CASP at Week 52 endpoint / LSM change from baseline (SE) in mean CPP at Week 52 endpoint: FAS; for LSM change from baseline (SE) in mean CPP at Week 12 endpoint / LSM change from baseline (SE) in mean CASP at Week 12 endpoint: monotherapy; for LSM change from baseline (SE) in mean CASP at Week 12 endpoint: LCZ696 400 mg/day, olmesartan 40 mg/day; for LSM change from baseline (SE) in mean CASP at Week 52 endpoint / LSM change from baseline (SE) in mean CPP at Week 52 endpoint: Week 52 endpoint (LOCF), add-on amlodipine/HCTZ allowed
Protocol: The term CAPP refers to central aortic PP. In the context of the present invention CAPP is measured with the SphygmoCor X-CEL System (AtCor Medical, Sydney, Australia) to non-invasively derive the ascending aortic pressure waveform from the brachial waveform using a validated generalised transfer function (GTF). A properly sized BP cuff is linked to a computer and software and the CASP, CAPP, augmentation pressure, and Alx are determined from the analysis of waveform by the system software. […]
The primary and secondary endpoints are changes from baseline in central aortic systolic pressure (CASP) and central aortic PP (CAPP) at week 12, respectively. Other secondary endpoints are the changes in CASP and CAPP at week 52. […] The primary variable will be analysed using a two-way analysis of covariance.
The SphygmoCor X-CEL System (AtCor Medical, Sydney, Australia) is being used to non-invasively derive the ascending aortic pressure waveform from the brachial waveform using a validated generalised transfer function (GTF).22 A properly sized BP cuff is linked to a computer and software and the CASP, CAPP, augmentation pressure, and Alx are determined from the analysis of waveform by the system software.
A sample size of 183 completers per group is targeted, which is calculated based on the primary efficacy variable, change from baseline in mean CASP at 12 weeks, assuming a standard deviation of 19 mm Hg. […] Assuming a 15% dropout rate, the total targeted sample size to be randomised is 432 patients (216 per group). The primary variable at the Week 12 endpoint will be analysed using a two-way analysis of covariance (ANCOVA), with treatment and region as factors and the baseline as a covariate. Mean CAPP at the Week 12 endpoint will be analysed using the same type of ANCOVA model used for the primary efficacy analysis. A two-sided significance at 0.05 level will be used for this analysis and a 95% confidence interval for the treatment difference will be provided.

[2] = test system: elderly patients (≥60 years) with essential hypertension; assay: PARAMETER study: safety and tolerability assessments; details: human, in vivo, 52 weeks
Source text: The inclusion criteria in the study was designed to enroll patients which met the profile of elderly patients with systolic hypertension and a wide pulse pressure, a characteristic reflective of large artery (aortic) stiffness. […] The study enrolled patient from 5 Dec. 2012 to 8 Apr. 2015.
This was a 52-week study, involving 50 centers from 12 countries (across Europe, South America, Asia and the United States). […] After 12 weeks, patients with uncontrolled BP (msSBP>140 mmHg and/or mean sitting diastolic blood pressure [msDBP]>90 mmHg) were allowed the use of add-on antihypertensives (amlodipine [2.5-5.0 mg] and then hydrochlorothiazide [6.25-25.0 mg]) as needed, at an interval of 4 weeks up to Week 24.
Safety and tolerability assessments include regular monitoring and recording of all adverse events (AEs) and concomitant medications or significant non-drug therapies. Evaluations of routine blood chemistries, blood counts with white cell differential and urine analyses, physical examinations, electrocardiograms (ECGs), and monitoring of vital signs will be performed at regular intervals.

[3] = test system: elderly patients (≥60 years) with essential hypertension; assay: […] study: 24-hour ambulatory brachial and central blood pressure (Mobil-O-Graph); type: in vivo, human
Source text: (§1) The study enrolled patient from 5 Dec. 2012 to 8 Apr. 2015.
The 24-hour maCAP and maPWA will be monitored using the oscillometric device, Mobil-0-Graph (IEM, Stolberg, Germany) with integrated ARC solver algorithms (Austrian Institute of Technology, Vienna, Austria). The traditional Mobil-O-Graph ambulatory blood pressure monitoring (ABPM) device has been available for more than a decade and through several product generations.24-27 The actual blood pressure measuring unit was validated according to the British Hypertension Society (BHS) and the European Society of Hypertension (ESH) recommendations.24,26 The method equipped with a GTF to derive aortic pressure waveforms28 is based on brachial readings acquired in the course of the conventional pressure measurement at diastolic level.
During the signal acquisition procedure, the received raw signals are separated into single waves and checked for their plausibility by means of extreme values and corresponding wavelengths using a cross-correlation approach. Poor waveforms are removed from further processing. After applying the GTF to each single waveform, the procedure is repeated.
With respect to legal issues, the Mobil-O-Graph maPWA monitor with integrated ARC solver algorithms holds approvals from CE, FDA, and JPAL (amongst others).

[4] = test system: elderly patients (≥60 years) with essential hypertension; assay: […] study: mean sitting (brachial) blood pressure and pulse pressure; type: in vivo, human
Source text: as §1
Superiority testing is also planned for the key secondary efficacy assessment, i.e. the reduction in mean central aortic PP (CAPP) after 12 weeks of treatment, and other secondary efficacy assessments such as mean CASP and CAPP after 52 weeks of treatment. Mean aPWV, msSBP, msDBP, msPP, mean ambulatory (ma) BP, maPP, and MAP will also be measured after 12 and 52 weeks of treatment.

CCCc1nc(C(C)(C)O)c(C(=O)O)n1Cc1ccc(-c2ccccc2-c2nnn[nH]2)cc1 [Olmesartan, reference compound]
LSM change from baseline (SE) in mean CPP at Week 12 endpoint [1]: −3.96 (0.69) mmHg | LSM change from baseline (SE) in mean CASP at Week 12 endpoint [1]: −8.90 (1.01) mmHg | LSM change from baseline (SE) in mean CASP at Week 12 endpoint ([1]; listed as olmesartan): −8.90 mmHg | LSM change from baseline (SE) in mean CPP at Week 12 endpoint ([1]; listed as olmesartan): −3.96 mmHg | LSM change from baseline (SE) in mean CASP at Week 52 endpoint [1]: −14.70 (0.96) mmHg | LSM change from baseline (SE) in mean CPP at Week 52 endpoint [1]: −6.65 (0.69) mmHg | LSM change from baseline (SE) in mean CASP at Week 52 endpoint ([1]; listed as olmesartan): −14.70 mmHg | LSM change from baseline (SE) in mean CPP at Week 52 endpoint ([1]; listed as olmesartan): −6.65 mmHg | Change from baseline to 12 weeks, mscDBP ([1]; mean sitting central diastolic BP, 12 weeks): −5.0 mmHg | Change from baseline to 52 weeks, mscDBP ([1]; mean sitting central diastolic BP, 52 weeks): −8.1 mmHg | Change from baseline to 12 weeks, mscMAP ([1]; mean sitting central mean arterial pressure, 12 weeks, mean): −6.7 mmHg | Change from baseline to 52 weeks, mscMAP ([1]; mean sitting central mean arterial pressure, 52 weeks, mean): −9.1 mmHg | percentage of patients who discontinued the study [2]: 18.7% | percentage of patients who discontinued the study due to an AE [2]: 5.3% | percentage of patients with AEs [2]: 53.8% | percentage of patients with SAEs [2]: 5.8% | Change from baseline to 12 weeks, macDBP ([3]; mean ambulatory central diastolic BP, 12 weeks, mean): −5.8 mmHg | Change from baseline to 52 weeks, macDBP ([3]; mean ambulatory central diastolic BP, 52 weeks, mean): −9.1 mmHg | Change from baseline to 12 weeks, macMAP ([3]; mean ambulatory central mean arterial pressure, 12 weeks, mean): −6.75 mmHg | Change from baseline to 52 weeks, macMAP ([3]; mean ambulatory central mean arterial pressure, 52 weeks, mean): −10.6 mmHg | Change from baseline to 12 weeks, macPP ([3]; mean ambulatory central pulse pressure, 12 weeks, mean): −2.9 mmHg | Change from baseline to 52 weeks, macPP ([3]; mean ambulatory central pulse pressure, 52 weeks, mean): −4.6 mmHg | Change from baseline to 12 weeks, macSBP ([3]; mean ambulatory central systolic BP, 12 weeks): −8.7 mmHg | Change from baseline to 52 weeks, macSBP ([3]; mean ambulatory central systolic BP, 52 weeks): −13.7 mmHg | Change from baseline to 12 weeks, maDBP ([3]; mean ambulatory diastolic BP, 12 weeks): −5.5 mmHg | Change from baseline to 52 weeks, maDBP ([3]; mean ambulatory diastolic BP, 52 weeks): −8.4 mmHg | Change from baseline to 12 weeks, maMAP ([3]; mean ambulatory mean arterial pressure, 12 weeks, mean): −7.1 mmHg | Change from baseline to 52 weeks, maMAP ([3]; mean ambulatory mean arterial pressure, 52 weeks, mean): −11.1 mmHg | Change from baseline to 12 weeks, maPP ([3]; mean ambulatory pulse pressure, 12 weeks): −3.7 mmHg | Change from baseline to 52 weeks, maPP ([3]; mean ambulatory pulse pressure, 52 weeks): −5.9 mmHg | Change from baseline to 12 weeks, maSBP ([3]; mean ambulatory systolic BP, 12 weeks): −9.1 mmHg | Change from baseline to 52 weeks, maSBP ([3]; mean ambulatory systolic BP, 52 weeks): −14.3 mmHg | Change from baseline to 12 weeks, msDBP ([4]; mean sitting diastolic BP, 12 weeks, mean): −5.2 mmHg | Change from baseline to 52 weeks, msDBP ([4]; mean sitting diastolic BP, 52 weeks, mean): −8.5 mmHg | Change from baseline to 12 weeks, msMAP ([4]; mean sitting mean arterial pressure, 12 weeks): −8.6 mmHg | Change from baseline to 52 weeks, msMAP ([4]; mean sitting mean arterial pressure, 52 weeks): −12.4 mmHg | Change from baseline to 12 weeks, msPP ([4]; mean sitting pulse pressure, 12 weeks, mean): −4.5 mmHg | Change from baseline to 52 weeks, msPP ([4]; mean sitting pulse pressure, 52 weeks, mean): −7.6 mmHg | Change from baseline to 12 weeks, msSBP ([4]; mean sitting systolic BP, 12 weeks, mean): −9.7 mmHg | Change from baseline to 52 weeks, msSBP ([4]; mean sitting systolic BP, 52 weeks, mean): −16.0 mmHg
